# ChEMBL document CHEMBL3045589, “Aromatic amino analogues of artemisinin: synthesis and in vivo antimalarial activity” (2010)
# Tested on: Plasmodium yoelii nigeriensis
# Assay: Antimalarial activity against Plasmodium yoelii nigeriensis infected in po-dosed Swiss albino mouse assessed as inhibition of parasite growth administered qd for 4 days
# Format: functional
# Details: 96 h
Structure (SMILES),ED50 [mg/kg],ED90 [mg/kg]
C[C@@H]1CC[C@@H]2[C@]34OO[C@](C)(CC[C@@H]13)O[C@H]4OC(Nc1ccc(O)c(CN3CCN(c4cccc(C(F)(F)F)c4)CC3)c1)[C@@]2(C)Br (stereo not given in full),6.01,9.28
C[C@@H]1CC[C@@H]2[C@]34OO[C@](C)(CC[C@@H]13)O[C@H]4OC(Nc1ccc(O)c(CN3CCNCC3)c1)[C@@]2(C)Br (stereo not given in full),12.4,24.6
C[C@@H]1CC[C@@H]2[C@]34OO[C@](C)(CC[C@@H]13)O[C@H]4OC(Nc1ccc(O)c(CN3CCN(c4ccccn4)CC3)c1)[C@@]2(C)Br (stereo not given in full),7.9,12.2
C[C@@H]1CC[C@@H]2[C@]34OO[C@](C)(CC[C@@H]13)O[C@H]4OC(Nc1ccc(O)c(CN3CCCCC3)c1)[C@@]2(C)Br (stereo not given in full),11.3,23.1
CCN(CC)Cc1cc(NC2O[C@@H]3O[C@@]4(C)CC[C@H]5[C@H](C)CC[C@H]([C@@]35OO4)[C@]2(C)Br)ccc1O (stereo not given in full),12.3,24.2
C[C@@H]1CC[C@H]2[C@@H](C)C(=O)O[C@@H]3O[C@@]4(C)CC[C@@H]1[C@]32OO4 [ARTEMISININ],16.4,27.1
CCN1CCN(Cc2cc(NC3O[C@@H]4O[C@@]5(C)CC[C@H]6[C@H](C)CC[C@H]([C@@]46OO5)[C@]3(C)Br)ccc2O)CC1 (stereo not given in full),9.83,16.6
C[C@@H]1CC[C@@H]2[C@]34OO[C@](C)(CC[C@@H]13)O[C@H]4OC(Nc1ccc(O)c(CN3CCN(C)CC3)c1)[C@@]2(C)Br (stereo not given in full),9.9,17.4
C[C@@H]1CC[C@@H]2[C@]34OO[C@](C)(CC[C@@H]13)O[C@H]4OC(Nc1ccc(O)c(CN3CCN(c4ccccc4)CC3)c1)[C@@]2(C)Br (stereo not given in full),5.41,8.72
C[C@@H]1CC[C@@H]2[C@]34OO[C@](C)(CC[C@@H]13)O[C@H]4OC(Nc1ccc(O)c(CN3CCN(Cc4ccccc4)CC3)c1)[C@@]2(C)Br (stereo not given in full),7.12,12.1
